Article PMC5041959, “A high-content EMT screen identifies multiple receptor tyrosine kinase inhibitors with activity on TGFβ receptor” (Oncotarget, 2016)
Read-outs that look alike come from different tables or passages of the source.

Legend:
TGFBR2 = TGFBR2 (Homo sapiens, UniProt P37173); experiment: Biochemical kinase profiling (33PanQinase radiometric assay)
[1] = mice, single dose of 50 mg/kg; cited from earlier work
TGFBR1 = target: T1, TGFBR1 (Homo sapiens, UniProt P36897); experiment: Biochemical kinase profiling (33PanQinase radiometric assay)
T1 sequence (P36897 34-503): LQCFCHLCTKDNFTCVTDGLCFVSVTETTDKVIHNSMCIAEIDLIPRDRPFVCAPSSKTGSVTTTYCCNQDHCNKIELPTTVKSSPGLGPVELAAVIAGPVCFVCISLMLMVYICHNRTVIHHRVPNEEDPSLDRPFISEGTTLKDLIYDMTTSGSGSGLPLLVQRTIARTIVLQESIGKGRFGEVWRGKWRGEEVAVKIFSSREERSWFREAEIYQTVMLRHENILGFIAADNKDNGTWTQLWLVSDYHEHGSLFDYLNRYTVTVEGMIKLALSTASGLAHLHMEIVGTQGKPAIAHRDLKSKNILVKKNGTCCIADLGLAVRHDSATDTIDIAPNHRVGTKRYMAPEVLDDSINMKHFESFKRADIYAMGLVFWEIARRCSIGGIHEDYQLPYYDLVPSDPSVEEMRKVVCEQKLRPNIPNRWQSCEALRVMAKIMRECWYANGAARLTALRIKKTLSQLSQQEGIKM

NMuMG cells [2] = experiment: High-content microscopy EMT screen in TGFβ-treated NMuMG cells (FA, SF, FN, cell count); type: cell-based, murine
Py2T cells = experiment: High-content microscopy EMT assay in TGFβ-treated Py2T breast cancer cells; type: cell-based, murine; details: Py2T
[3] = cited from earlier work
[4] = cited from earlier work; remark: listed apart in the source
VEGFR3 = target: T2, VEGFR3 (Homo sapiens, UniProt P35916); experiment: Biochemical kinase profiling (33PanQinase radiometric assay); details: ATP at apparent Km
T2 construct: purchased ProQinase (Freiburg, Germany)

FGFR1 = FGFR1 (Homo sapiens, UniProt P11362); experiment: as above; details: read-out: FGFR1 IC50; ATP at apparent Km
PDGFRA = PDGFRA (Homo sapiens, UniProt P16234); experiment: as above; details: read-out: PDGFRA IC50; ATP at apparent Km
c-KIT = target: T3, c-KIT (Homo sapiens, UniProt P10721); experiment: as above; details: ATP at apparent Km
T3 construct: purchased ProQinase (Freiburg, Germany)
T3 sequence (P10721 26-976): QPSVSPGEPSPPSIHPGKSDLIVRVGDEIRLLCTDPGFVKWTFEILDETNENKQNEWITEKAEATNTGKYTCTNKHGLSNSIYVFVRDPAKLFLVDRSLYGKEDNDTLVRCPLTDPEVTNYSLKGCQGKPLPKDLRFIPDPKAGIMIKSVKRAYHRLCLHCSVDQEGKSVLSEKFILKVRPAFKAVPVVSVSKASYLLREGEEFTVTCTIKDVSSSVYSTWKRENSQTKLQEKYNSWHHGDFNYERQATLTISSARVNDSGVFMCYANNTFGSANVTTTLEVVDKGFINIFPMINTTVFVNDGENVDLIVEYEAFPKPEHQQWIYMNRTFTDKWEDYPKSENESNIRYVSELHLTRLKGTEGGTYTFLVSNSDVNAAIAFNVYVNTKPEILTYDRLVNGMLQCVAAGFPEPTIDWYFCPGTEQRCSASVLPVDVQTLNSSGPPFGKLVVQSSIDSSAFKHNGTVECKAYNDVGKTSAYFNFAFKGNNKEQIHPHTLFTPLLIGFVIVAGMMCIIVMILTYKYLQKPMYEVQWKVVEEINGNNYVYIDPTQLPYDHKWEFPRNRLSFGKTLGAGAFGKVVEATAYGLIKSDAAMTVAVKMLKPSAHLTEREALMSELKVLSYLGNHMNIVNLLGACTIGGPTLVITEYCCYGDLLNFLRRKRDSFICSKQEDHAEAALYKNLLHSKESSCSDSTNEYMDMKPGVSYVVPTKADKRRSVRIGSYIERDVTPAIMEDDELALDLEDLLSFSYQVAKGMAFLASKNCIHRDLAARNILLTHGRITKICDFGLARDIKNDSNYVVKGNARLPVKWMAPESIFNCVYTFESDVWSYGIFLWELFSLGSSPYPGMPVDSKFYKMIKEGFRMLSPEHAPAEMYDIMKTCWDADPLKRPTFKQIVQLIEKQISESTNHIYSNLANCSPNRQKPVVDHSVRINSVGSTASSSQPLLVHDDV

EGFR = EGFR (Homo sapiens, UniProt P00533); experiment: as above; details: read-out: EGFR IC50; ATP at apparent Km
FGFR4 = FGFR4 (Homo sapiens, UniProt P22455); experiment: as above; details: read-out: FGFR4 IC50; ATP at apparent Km
Chain of FGFR4 (P22455 22-802): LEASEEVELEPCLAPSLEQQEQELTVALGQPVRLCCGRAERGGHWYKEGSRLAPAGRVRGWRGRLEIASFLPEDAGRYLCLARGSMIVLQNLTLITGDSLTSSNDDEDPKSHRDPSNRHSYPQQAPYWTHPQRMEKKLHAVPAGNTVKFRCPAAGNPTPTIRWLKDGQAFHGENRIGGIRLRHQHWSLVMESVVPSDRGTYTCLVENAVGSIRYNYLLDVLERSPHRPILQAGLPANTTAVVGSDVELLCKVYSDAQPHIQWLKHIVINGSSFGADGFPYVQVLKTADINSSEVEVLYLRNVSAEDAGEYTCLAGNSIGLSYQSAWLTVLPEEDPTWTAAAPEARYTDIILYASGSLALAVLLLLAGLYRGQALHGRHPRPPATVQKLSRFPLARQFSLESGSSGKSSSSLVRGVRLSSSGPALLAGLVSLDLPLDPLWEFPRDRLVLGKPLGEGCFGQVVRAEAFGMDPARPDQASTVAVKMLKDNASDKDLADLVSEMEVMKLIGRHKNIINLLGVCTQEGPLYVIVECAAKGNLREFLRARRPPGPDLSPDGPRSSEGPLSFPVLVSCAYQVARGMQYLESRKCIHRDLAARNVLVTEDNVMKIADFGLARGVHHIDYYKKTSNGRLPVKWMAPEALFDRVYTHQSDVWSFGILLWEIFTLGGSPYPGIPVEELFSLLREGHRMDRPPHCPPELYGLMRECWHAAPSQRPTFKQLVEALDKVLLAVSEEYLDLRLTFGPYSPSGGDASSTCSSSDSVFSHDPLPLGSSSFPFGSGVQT

VEGFR1 = target: T4, VEGFR1 (Homo sapiens, UniProt P17948); experiment: as above; details: ATP at apparent Km
T4 construct: purchased ProQinase (Freiburg, Germany)

PDGFRB = PDGFRB (Homo sapiens, UniProt P09619); experiment: as above; details: read-out: PDGFRB IC50; ATP at apparent Km
Chain of PDGFRB (P09619 33-1106): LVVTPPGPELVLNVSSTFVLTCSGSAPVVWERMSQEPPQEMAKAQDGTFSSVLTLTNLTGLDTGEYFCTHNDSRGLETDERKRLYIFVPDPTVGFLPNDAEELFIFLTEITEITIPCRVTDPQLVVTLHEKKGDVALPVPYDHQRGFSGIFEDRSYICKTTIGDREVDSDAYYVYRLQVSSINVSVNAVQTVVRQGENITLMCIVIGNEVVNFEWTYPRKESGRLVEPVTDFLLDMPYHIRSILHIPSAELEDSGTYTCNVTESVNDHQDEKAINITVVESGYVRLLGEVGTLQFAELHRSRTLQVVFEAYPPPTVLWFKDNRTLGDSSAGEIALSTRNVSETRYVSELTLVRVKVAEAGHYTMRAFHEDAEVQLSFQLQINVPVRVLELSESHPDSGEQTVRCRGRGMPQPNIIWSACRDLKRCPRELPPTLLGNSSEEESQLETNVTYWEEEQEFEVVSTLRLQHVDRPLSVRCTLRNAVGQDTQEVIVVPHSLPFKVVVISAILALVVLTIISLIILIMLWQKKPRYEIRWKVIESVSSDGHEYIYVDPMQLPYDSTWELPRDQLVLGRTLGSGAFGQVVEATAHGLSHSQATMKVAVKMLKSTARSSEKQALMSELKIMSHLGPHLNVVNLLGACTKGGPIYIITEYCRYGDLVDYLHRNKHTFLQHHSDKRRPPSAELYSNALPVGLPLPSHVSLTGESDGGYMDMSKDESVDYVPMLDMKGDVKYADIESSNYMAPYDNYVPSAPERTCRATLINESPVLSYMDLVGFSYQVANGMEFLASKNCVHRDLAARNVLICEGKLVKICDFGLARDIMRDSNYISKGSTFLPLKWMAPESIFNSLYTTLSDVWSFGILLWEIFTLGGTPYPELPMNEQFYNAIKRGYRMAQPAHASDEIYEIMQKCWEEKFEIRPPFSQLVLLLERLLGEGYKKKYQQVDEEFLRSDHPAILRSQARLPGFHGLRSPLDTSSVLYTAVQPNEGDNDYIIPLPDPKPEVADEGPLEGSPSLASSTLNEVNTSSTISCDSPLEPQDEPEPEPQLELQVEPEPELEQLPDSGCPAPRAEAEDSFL

FGFR2 = FGFR2 (Homo sapiens, UniProt P21802); experiment: as above; details: read-out: FGFR2 IC50; ATP at apparent Km
FGFR3 = FGFR3 (Homo sapiens, UniProt P22607); experiment: as above; details: read-out: FGFR3 IC50; ATP at apparent Km
Chain of FGFR3 (P22607 23-806): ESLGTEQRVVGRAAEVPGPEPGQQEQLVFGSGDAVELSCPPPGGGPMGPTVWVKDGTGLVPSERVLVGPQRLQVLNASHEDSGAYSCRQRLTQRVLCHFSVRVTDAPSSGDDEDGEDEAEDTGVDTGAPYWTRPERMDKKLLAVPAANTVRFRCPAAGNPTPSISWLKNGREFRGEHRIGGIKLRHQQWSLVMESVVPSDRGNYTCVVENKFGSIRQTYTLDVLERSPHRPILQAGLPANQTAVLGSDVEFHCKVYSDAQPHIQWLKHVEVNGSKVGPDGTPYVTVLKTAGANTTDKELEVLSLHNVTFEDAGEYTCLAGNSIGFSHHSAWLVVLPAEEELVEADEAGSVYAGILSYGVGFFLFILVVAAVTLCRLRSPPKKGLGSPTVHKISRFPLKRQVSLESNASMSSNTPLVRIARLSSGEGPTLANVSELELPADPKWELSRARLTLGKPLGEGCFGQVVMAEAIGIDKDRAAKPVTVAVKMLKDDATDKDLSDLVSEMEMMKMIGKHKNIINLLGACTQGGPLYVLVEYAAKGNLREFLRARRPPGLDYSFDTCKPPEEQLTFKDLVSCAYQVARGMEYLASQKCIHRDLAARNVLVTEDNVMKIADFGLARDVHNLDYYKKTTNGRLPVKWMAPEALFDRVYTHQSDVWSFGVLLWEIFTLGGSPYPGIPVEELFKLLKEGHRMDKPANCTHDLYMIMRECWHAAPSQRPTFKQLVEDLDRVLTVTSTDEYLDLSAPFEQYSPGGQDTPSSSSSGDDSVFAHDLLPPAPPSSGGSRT

SRC = SRC (Homo sapiens, UniProt P12931); experiment: as above; details: read-out: SRC IC50; ATP at apparent Km
Chain of SRC (P12931 whole entry): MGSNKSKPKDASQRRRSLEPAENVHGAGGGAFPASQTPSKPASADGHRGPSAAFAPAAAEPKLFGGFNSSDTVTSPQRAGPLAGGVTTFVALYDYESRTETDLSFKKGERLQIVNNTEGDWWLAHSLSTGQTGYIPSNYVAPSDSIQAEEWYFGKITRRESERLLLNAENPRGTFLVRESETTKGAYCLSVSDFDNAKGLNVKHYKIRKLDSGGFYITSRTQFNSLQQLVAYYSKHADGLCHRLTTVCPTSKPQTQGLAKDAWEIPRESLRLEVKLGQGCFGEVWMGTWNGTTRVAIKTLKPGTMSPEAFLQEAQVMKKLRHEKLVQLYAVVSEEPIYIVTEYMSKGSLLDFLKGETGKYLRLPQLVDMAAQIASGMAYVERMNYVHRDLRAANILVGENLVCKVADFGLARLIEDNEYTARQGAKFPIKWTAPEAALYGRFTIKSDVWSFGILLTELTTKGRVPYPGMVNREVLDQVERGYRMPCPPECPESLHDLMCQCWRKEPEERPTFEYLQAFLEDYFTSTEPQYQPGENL

VEGFR2 = target: T5, VEGFR2 (Homo sapiens, UniProt P35968); experiment: as above; details: ATP at apparent Km
T5 construct: purchased ProQinase (Freiburg, Germany)

NMuMG cells [5] = experiment: E-cadherin, ZO1 and vimentin immunofluorescence in TGFβ-treated NMuMG cells; type: cell-based, murine; details: four days TGFβ plus inhibitor
Description: NMuMG and Py2T cells were trypsinized, washed, seeded at 1000 cells/well, resuspended in 40 μl growth medium with a Multidrop-384 (Titertek) in 384-well microplates (Greiner, 781091), and grown overnight at 37°C, 5% CO2. The next day, 111 μl growth medium was added with the Multidrop-384 to 1 μl of the 2 mM library compounds of which 10 μl was transferred with a 384-well pipettor (VPrep, Agilent, US) to the cell assay plate and equilibrated for 10 min (final compound concentration 3 μM). For screenings at 300 nM or 30 nM, the compounds were diluted 1:10 or 1:100 in growth medium, respectively, before use. […]
Cells were imaged using the automated epifluorescence microscope ImageXpress Micro from Molecular Devices (Sunnyvale CA, USA) equipped with a plate-loading robot (CRS Catalyst, Thermo Scientific). […] The images were automatically analyzed by MetaXpress and segmented into sub-cellular structures based on morphological features such as object size and fluorescence distribution. Fluorescence distribution was a measure of the threshold intensity above local background and was adjusted for all parameters (nuclei, FA, SF and FN) by means of the respective positive and negative controls to compensate for inter-experimental variations between the different screening batches. […] Vimentin was quantified similar to SF and FN using the Angiogenesis module. […]

[6] = Mus musculus, 96 h; NMuMG, TGFβ1 2 ng/ml plus compound, 4 days; parameter decreased by 50%; read-out: FA IC50 (focal adhesion formation)
[7] = Mus musculus, 96 h; NMuMG, TGFβ1 2 ng/ml plus compound, 4 days; parameter decreased by 50%; read-out: FN IC50 (fibronectin patch formation)
[8] = Mus musculus, 96 h; NMuMG, TGFβ1 2 ng/ml plus compound, 4 days; parameter decreased by 50%; read-out: SF IC50 (stress fibers)
[9] = Mus musculus; NMuMG; cell count decreased by 50% compared to DMSO control; read-out: Tox IC50
[10] = Mus musculus; NMuMG; mean of IC50 values obtained for FA, SF, FN; read-out: EMT (FA/SF/FN) combined IC50
[11] = Mus musculus; read-out: CCI IC50 (cell count increase)
[12] = Mus musculus; read-out: Emax (maximal effect on cell count)
[13] = read-out: TGFBR2 IC50, ATP at apparent Km
[14] = NMuMG, TGFβ1 2 ng/ml plus compound, 4 days; parameter decreased by 50%; read-out: FA IC50 (focal adhesion formation)
[15] = NMuMG, TGFβ1 2 ng/ml plus compound, 4 days; parameter decreased by 50%; read-out: FN IC50 (fibronectin patch formation)
[16] = NMuMG, TGFβ1 2 ng/ml plus compound, 4 days; parameter decreased by 50%; read-out: SF IC50 (stress fibers)
[17] = NMuMG; cell count decreased by 50% compared to DMSO control; read-out: Tox IC50
[18] = NMuMG; cell count increased by 50% compared to 100% with 10 μM SB-431542; read-out: CCI IC50 (cell count increase)
[19] = NMuMG; compared to reference 10 μM SB-431542 = 100%
[20] = NMuMG; mean of IC50 values obtained for FA, SF, FN; read-out: EMT (FA/SF/FN) combined IC50

Chain of TGFBR2 (P37173 23-567): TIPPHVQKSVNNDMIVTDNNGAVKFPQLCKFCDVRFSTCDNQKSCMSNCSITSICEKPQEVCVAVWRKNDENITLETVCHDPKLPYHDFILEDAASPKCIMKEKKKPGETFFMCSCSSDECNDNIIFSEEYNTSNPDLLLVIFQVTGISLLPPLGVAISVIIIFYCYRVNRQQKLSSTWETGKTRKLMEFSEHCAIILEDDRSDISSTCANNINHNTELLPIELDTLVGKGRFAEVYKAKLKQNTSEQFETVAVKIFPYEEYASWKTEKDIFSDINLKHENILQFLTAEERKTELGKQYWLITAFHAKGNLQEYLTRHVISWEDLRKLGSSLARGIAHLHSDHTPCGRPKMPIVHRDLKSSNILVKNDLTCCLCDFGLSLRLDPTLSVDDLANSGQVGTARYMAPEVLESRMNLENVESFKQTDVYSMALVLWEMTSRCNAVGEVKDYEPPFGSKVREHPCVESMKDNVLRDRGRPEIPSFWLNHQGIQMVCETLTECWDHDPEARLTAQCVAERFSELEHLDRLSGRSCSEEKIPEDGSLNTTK

IC50 (NMuMG cells [2]; [6])	IC50 (NMuMG cells [2]; [7])	IC50 (NMuMG cells [2]; [8])	IC50 (NMuMG cells [2]; [10])	IC50 (NMuMG cells [2]; [11])	Structure (SMILES)	IC50 (NMuMG cells [2]; [9])	Emax (NMuMG cells [2]; [12])	plasma protein binding [4]	IC50 (TGFBR2; [13])	IC50 (VEGFR3)	IC50 (FGFR1)	IC50 (PDGFRA)	IC50 (c-KIT)	IC50 (EGFR)	IC50 (FGFR4)	IC50 (VEGFR1)	IC50 (PDGFRB)	IC50 (FGFR2)	IC50 (FGFR3)	IC50 (NMuMG cells [2]; [14])	other results
2.63 µM	1.18 µM	5.06 µM	2.96 µM	1.11 µM	COC(=O)c1ccc2c(c1)NC(=O)/C2=C(\Nc1ccc(N(C)C(=O)CN2CCN(C)CC2)cc1)c1ccccc1 [Nintedanib]	23 µM	26.2%														IC50 (TGFBR2): > 10 µM; Cmax [1]: ~1000 nM; IC50 (TGFBR1): 0.505 µM; IC50 (Py2T cells; Mus musculus, cell count decreased by 50% compared to DMSO control, read-out: Tox IC50): 0.502 µM; FA IC50 (focal adhesions) (Py2T cells; TGFβ plus compound, 4 days): n.m.; FN IC50 (fibronectin patches) (Py2T cells; TGFβ plus compound, 4 days): n.m.; SF IC50 (stress fibers) (Py2T cells; TGFβ plus compound, 4 days): n.m.; Emax (maximal effect on cell count) (Py2T cells; compared to reference 10 μM SB-431542 = 100%): n.m.
8.03 µM	3.95 µM	7.3 µM	6.43 µM	1.08 µM	Cc1ccc(Nc2nccc(N(C)c3ccc4c(C)n(C)nc4c3)n2)cc1S(N)(=O)=O [Pazopanib]	15.7 µM	17.6%	above 99.9%													steady state blood levels required to be active in patients [3]: at least 40 μM; IC50 (NMuMG cells [2]; Mus musculus, combined FA/SF/FN; read-out: IC50 for blocking EMT in NMuMG cells): 6.4 µM
					Cc1cccc(-c2[nH]ncc2-c2ccc3ncccc3n2)n1 [RepSox]				3.07 µM	1.64 µM	> 10 µM	> 10 µM	5.24 µM	> 10 µM	> 10 µM	1.08 µM	4.37 µM	4.76 µM	> 10 µM	0.047 µM	IC50 (NMuMG cells [2]; [15]): 0.044 µM; IC50 (NMuMG cells [2]; [16]): 0.055 µM; IC50 (NMuMG cells [2]; [17]): > 3 µM; IC50 (NMuMG cells [2]; [18]): 0.088 µM; Emax (maximal effect on cell count) (NMuMG cells [2]; [19]): 100%; IC50 (NMuMG cells [2]; [20]): 0.0487 µM; IC50 (SRC): 6.11 µM
					Cc1cccc(-c2[nH]c(C(C)(C)C)nc2-c2ccc3nccnc3c2)n1 [SB-525334]				> 10 µM	> 10 µM	> 10 µM	> 10 µM	> 10 µM	> 10 µM	> 10 µM	< 0.0003 µM	> 10 µM	> 10 µM	> 10 µM	0.276 µM	IC50 (VEGFR2): 3.52 µM; IC50 (NMuMG cells [2]; [15]): 0.261 µM; IC50 (NMuMG cells [2]; [16]): 0.243 µM; IC50 (NMuMG cells [2]; [17]): > 3 µM; IC50 (NMuMG cells [2]; [18]): 0.38 µM; Emax (maximal effect on cell count) (NMuMG cells [2]; [19]): 100%; IC50 (NMuMG cells [2]; [20]): 0.26 µM; IC50 (SRC): 5.62 µM
					CNC(=O)c1cc(Oc2ccc(NC(=O)Nc3ccc(Cl)c(C(F)(F)F)c3)cc2)ccn1 [Sorafenib]			99.7%													effect on TGFβ-induced loss of E-cadherin and ZO1 from junctions and vimentin filament formation (NMuMG cells [5]): only marginally stabilized; IC50 (NMuMG cells [2]; Mus musculus, 96 h, read-out: FA IC50 (focal adhesion formation)): 2.09 µM; IC50 (NMuMG cells [2]; Mus musculus, 96 h, read-out: FN IC50 (fibronectin patch formation)): 1.35 µM; IC50 (NMuMG cells [2]; Mus musculus, 96 h, read-out: SF IC50 (stress fibers)): 3.93 µM; IC50 (NMuMG cells [2]; Mus musculus, read-out: CCI IC50 (cell count increase)): 0.103 µM; IC50 (NMuMG cells [2]; Mus musculus, read-out: EMT (FA/SF/FN) combined IC50): 2.46 µM; Emax (NMuMG cells [2]; Mus musculus, read-out: Emax (maximal effect on cell count)): 17.5%; IC50 (NMuMG cells [2]; Mus musculus, read-out: Tox IC50): 12.6 µM
